From US11401376B2, “Chemical compounds for coating of nanostructures” (Spago Nanomedical AB, priority 2017, dated 2022) come the findings set out here.

Format in all cases: physicochemical
Data set [1] is described as follows: Heat treatment, loss of coating (Example 17). Particulars: for Loss of coating: coated nanostructures, 80° C. for 30 minutes, washed on 10 kDa filter, Si/P ratio by ICP-OES. As to the method: The sample was moved to a 20 mL flask and degassed by three N2-vacuum cycles and was then kept under N2. The sample was heated in a silicon oil bath at 80° C. for 30 minutes and was then cooled to ambient room temperature. A reference aliquot was withdrawn (A). The remaining sample was washed with four times with milliQ water on a 10 kDa Vivaspin 6 centrifugation filter (Sartorious). A reference aliquot (B) was withdrawn from the retentate. Reference aliquots A, and B were analyzed with ICP-OES.

The nature of data set [2]: Calcium induced aggregation of the coated nanostructures (Example 15). The conditions noted are these: 0-8 mM CaCl2, 10 mM Tris-HCl 150 mM NaCl pH 7.4, 1 h room temperature. The protocol:
Volumes of nanostructure were added to 1 ml aliquots of 10 mM Tris-HCl 150 mM NaCl pH 7.4 containing 0, 0.5, 1, 2, 4 and 8 mM CaCl2) in microcentrifuge tubes so that the final concentration of phosphorus was 0.5 mM. The samples were vortexed, incubated at room temperature for 1 h and centrifuged for 10 min at 12000×g. The supernatants (700 μl) were removed and analyzed by ICP for phosphorus concentrations. The phosphorus concentrations were normalized to the concentration in corresponding samples without CaCl2) and plotted as ‘% remaining in solution’ against the concentration of CaCl2) in the reaction mixture. When 90% or more remains in solution the material is considered robust against calcium induced aggregation.

Data set [3] is described as follows: Stability of coated nanostructures on manganese loading / process conditions (GFC, Example 18). The protocol:
200 ml of the crude solution of coated nanostructures of Example 13b was added a solution of 0.256 g MnCl2.4H2O dissolved in 2.56 ml ethylene glycol. The pH was adjusted to 4.07 with 1 M NaOH. The manganese solution was added to the reaction. An aliquot A was taken out. The reaction was heated at 100° C. for 25 h 30 min after which the temperature descended to ambient room temperature. An aliquot B was withdrawn.

For the substance “1-[ω-methyl-(ethyleneoxy)12-20]-3-(prop-3-triethoxysilyl-1-yl- [A]”, the Loss of coating in data set [1] is on record as 5%. Moreover, the “hydrolysis of the coating bound to polymeric nanostructures” value in data set [1] (neutral to basic conditions) was “prone to slow hydrolysis”. Also, the Ca resistance result in data set [2] is “Y (When 90% or more remains in solution the material is considered robust against calcium induced aggregation)”.

Turning to “4-[ω-methyl-(ethyleneoxy)12-20]hepta-1,6-diene [Compound 43]”, in data set [1], the Loss of coating is listed as 0%.

For “N,N-bis(prop-3-trimethoxysilyl-1-yl)-2-[ω-methyl-(ethyleneoxy)8-11]acetamide [Compound 54]”, in data set [3], the “stability of coated nanostructures under the coating / process conditions” value is reported as “degraded substantially”.
